The record followed here is US9522886B2, “Pyridine derivatives” (Hoffmann-La Roche Inc., priority 2012, dated 2016).

One experiment has as its target human CB2 receptors (Homo sapiens (Human), UniProt P34972). Nature of the experiment: cAMP assay, CHO cells expressing human CB2 receptors. The format is cell-based. Conditions: functional cAMP assay, CHO cells expressing human CB2; read-out: human CB2 EC50. The procedure:
(§1) CHO cells expressing human CB1 or CB2 receptors are seeded 17-24 hours prior to the experiment 50.000 cells per well in a black 96 well plate with flat clear bottom (Corning Costar #3904) in DMEM (Invitrogen No. 31331), 1×HT supplement, with 10% fetal calf serum and incubated at 5% CO2 and 37° C. in a humidified incubator. The growth medium was exchanged with Krebs Ringer Bicarbonate buffer with 1 mM IBMX and incubated at 30° C. for 30 min. Compounds were added to a final assay volume of 100 μl and incubated for 30 min at 30° C. Using the cAMP-Nano-TRF detection kit the assay (Roche Diagnostics) was stopped by the addition of 50 μl lysis reagent (Tris, NaCl, 1.5% Triton X100, 2.5% NP40, 10% NaN3) and 50 μl detection solutions (20 μM mAb Alexa700-cAMP 1:1, and 48 μM Ruthenium-2-AHA-cAMP) and shaken for 2 h at room temperature. The time-resolved energy transfer is measured by a TRF reader (Evotec Technologies GmbH), equipped with a ND:YAG laser as excitation source. The plate is measured twice with the excitation at 355 nm and at the emission with a delay of 100 ns and a gate of 100 ns, total exposure time 10 s at 730 (bandwidth 30 nm) or 645 nm (bandwidth 75 nm), respectively.
(§2) EC50 values were determined using Activity Base analysis (ID Business Solution, Limited).
Background: Changes in cAMP serve as a functional read-out for many G protein-coupled receptors.

A further experiment concerns the target human CB1 receptors (Homo sapiens (Human), UniProt P21554). Nature of the experiment: cAMP assay, CHO cells expressing human CB1 receptors. In kind it is cell-based. Conditions: functional cAMP assay, CHO cells expressing human CB1; read-out: human CB1 EC50. The method, then: as §1, §2

pEC50: −log10 of the molar value.

Chain of human CB1 receptors (P21554 whole entry): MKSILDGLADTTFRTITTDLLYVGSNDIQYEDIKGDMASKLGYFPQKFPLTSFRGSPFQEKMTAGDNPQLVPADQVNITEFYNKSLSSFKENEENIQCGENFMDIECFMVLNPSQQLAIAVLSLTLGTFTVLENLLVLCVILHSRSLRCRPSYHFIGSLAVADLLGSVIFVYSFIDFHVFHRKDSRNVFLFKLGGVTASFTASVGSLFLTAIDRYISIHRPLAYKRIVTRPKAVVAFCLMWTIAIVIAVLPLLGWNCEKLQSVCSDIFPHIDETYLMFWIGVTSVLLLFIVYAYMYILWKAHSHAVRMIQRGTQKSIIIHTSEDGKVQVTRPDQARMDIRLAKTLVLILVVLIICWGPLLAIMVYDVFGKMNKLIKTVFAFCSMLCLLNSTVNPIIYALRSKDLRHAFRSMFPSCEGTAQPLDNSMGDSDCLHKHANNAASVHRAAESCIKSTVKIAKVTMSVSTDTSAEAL
Chain of human CB2 receptors (P34972 whole entry): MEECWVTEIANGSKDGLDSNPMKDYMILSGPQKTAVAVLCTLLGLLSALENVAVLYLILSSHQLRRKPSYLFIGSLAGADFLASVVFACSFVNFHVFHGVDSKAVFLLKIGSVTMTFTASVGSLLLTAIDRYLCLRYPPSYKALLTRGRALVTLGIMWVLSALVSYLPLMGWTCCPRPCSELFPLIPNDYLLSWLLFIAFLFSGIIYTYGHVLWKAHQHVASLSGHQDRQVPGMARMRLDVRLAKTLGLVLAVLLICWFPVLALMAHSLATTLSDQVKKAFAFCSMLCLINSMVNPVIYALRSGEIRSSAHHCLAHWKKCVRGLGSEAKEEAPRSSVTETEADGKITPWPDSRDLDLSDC

Turning to `CC(C)(C)[C@@H](CC(N)=O)NC(=O)c1ccc(C2CC2)c(OCC2CC2)n1` [Example 29, 5-Cyclopropyl-6-cyclopropylmethoxy-pyridine-2-carboxylic acid ((R)-1-carbamoylmethyl-2,2-dimethyl-propyl)-amide], the results for the pEC50 at human CB2 receptors and at human CB1 receptors were 7.63 and less than 5.00, respectively.

On to `NC(=O)CC1(NC(=O)c2ccc(C3(O)CCC3)c(OCC3CC3)n2)CS(=O)(=O)C1` [Example 92, N-[3-(2-Amino-2-oxoethyl)-1,1-dioxothietan-3-yl]-6-(cyclopropylmethoxy)-5-(1-hydroxycyclobutyl)pyridine-2-carboxamide], for which the negative-log EC50 (pEC50) on human CB2 receptors was 8.66; on human CB1 receptors, less than 5.00.

Take `NC(=O)CC1(NC(=O)c2ccc(N3CC(F)(F)C3)c(OCC3CC3)n2)CS(=O)(=O)C1` [Example 61, 6-Cyclopropylmethoxy-5-(3,3-difluoro-azetidin-1-yl)-pyridine-2-carboxylic acid (3-carbamoylmethyl-1,1-dioxo-1λ6-thietan-3-yl)-amide]: the pEC50 on human CB2 receptors was 9.00; at human CB1 receptors it was 5.11.

For `NC(=O)CC1(NC(=O)c2ccc(N3CC(F)(F)C3)c(OCC3CC3)n2)CCOC1` (stereo not shown) [Example 82, N-[3-(2-Amino-2-oxoethyl)oxolan-3-yl]-6-(cyclopropylmethoxy)-5-(3,3-difluoroazetidin-1-yl)pyridine-2-carboxamide], the negative-log EC50 (pEC50) on human CB2 receptors was 8.82; on human CB1 receptors it was less than 5.00.

On to `CCCCCC(CC(=O)NC)NC(=O)c1ccc(N2CC(F)(F)C2)c(OCC2CC2)n1` (stereo not shown) [Example 7, 6-Cyclopropylmethoxy-5-(3,3-difluoro-azetidin-1-yl)-pyridine-2-carboxylic acid (1-methylcarbamoylmethyl-hexyl)-amide], for which the pEC50 on human CB2 receptors was 7.25; on human CB1 receptors, less than 5.00.

Consider `CCOC(=O)CC1(NC(=O)c2ccc(C3CC3)c(OCC3CC3)n2)COC1` [Example 1, {3-[(5-Cyclopropyl-6-cyclopropylmethoxy-pyridine-2-carbonyl)-amino]-oxetan-3-yl}-acetic acid ethyl ester], for which the negative logarithm of the EC50 (pEC50) is 7.27 on human CB2 receptors and less than 5.00 on human CB1 receptors.

Turning to `NC(=O)[C@H]1CCCC[C@H]1NC(=O)c1ccc(N2CC(F)(F)C2)c(OCC2CC2)n1` [Example 21, (−)-cis-6-Cyclopropylmethoxy-5-(3,3-difluoro-azetidin-1-yl)-pyridine-2-carboxylic acid (2-carbamoyl-cyclohexyl)-amide], the pEC50 at human CB2 receptors was 6.39; at human CB1 receptors it was less than 5.00.

Consider `NC(=O)CC1(NC(=O)c2ccc(C3(O)CCC3)c(OCC3CC3)n2)COC1` [Example 90, N-[3-(2-Amino-2-oxoethyl)oxetan-3-yl]-6-(cyclopropylmethoxy)-5-(1-hydroxycyclobutyl)pyridine-2-carboxamide], for which the pEC50 was 8.06 at human CB2 receptors and less than 5.00 at human CB1 receptors.

As for `COC(=O)CC1(NC(=O)c2ccc(N3CC(F)(F)C3)c(OCC3CC3)n2)CCC1` [Example 68, Methyl 2-[1-[[6-(cyclopropylmethoxy)-5-(3,3-difluoroazetidin-1-yl)pyridine-2-carbonyl]amino]cyclobutyl]acetate], the pEC50 on human CB2 receptors is 8.96; on human CB1 receptors, less than 5.00.

As for `NC(=O)CC1(NC(=O)c2ccc(C3(F)CCC3)c(OCC3CC3)n2)COC1` [Example 89, N-[3-(2-Amino-2-oxoethyl)oxetan-3-yl]-6-(cyclopropylmethoxy)-5-(1-fluorocyclobutyl)pyridine-2-carboxamide], the pEC50 was 7.92 on human CB2 receptors and less than 5.00 at human CB1 receptors.

`COC(=O)CC1(NC(=O)c2ccc(C3CC3)c(OCC3CC3)n2)CCN(C(=O)OC(C)(C)C)CC1` [Example 45, 4-[(5-Cyclopropyl-6-cyclopropylmethoxy-pyridine-2-carbonyl)-amino]-4-methoxycarbonylmethyl-piperidine-1-carboxylic acid tert-butyl ester]: the values for the pEC50 at human CB2 receptors and at human CB1 receptors were 6.63 and less than 5.00, respectively.

With `NC(=O)CC1(NC(=O)c2ccc(C3CC3)c(Cc3ccc(F)cc3)n2)CN(C(=O)OCc2ccccc2)C1` [Example 74, Benzyl 3-(2-amino-2-oxoethyl)-3-[[5-cyclopropyl-6-[(4-fluorophenyl)methyl]pyridine-2-carbonyl]amino]azetidine-1-carboxylate], the pEC50 at human CB2 receptors is 7.41; at human CB1 receptors, less than 5.00.

With `NC(=O)CC1(NC(=O)c2ccc(C3CC3)c(OCC3CC3)n2)CCNCC1` [Example 86, N-[4-(2-Amino-2-oxoethyl)piperidin-4-yl]-5-cyclopropyl-6-(cyclopropylmethoxy)pyridine-2-carboxamide], the negative-log EC50 (pEC50) at human CB2 receptors is 6.62; at human CB1 receptors it was less than 5.00.

On to `NC(=O)CC(NC(=O)c1ccc(N2CC(F)(F)C2)c(OCC2CC2)n1)C(F)(F)F` (stereo not shown) [Example 55, 6-Cyclopropylmethoxy-5-(3,3-difluoro-azetidin-1-yl)-pyridine-2-carboxylic acid (1-carbamoylmethyl-2,2,2-trifluoro-ethyl)-amide], for which the values for the negative-log EC50 (pEC50) on human CB2 receptors and on human CB1 receptors were 8.52 and less than 5.00, respectively.

Turning to `CNC(=O)CC(C)(C)NC(=O)c1ccc(N2CC(F)(F)C2)c(OCC2CC2)n1` [Example 6, 6-Cyclopropylmethoxy-5-(3,3-difluoro-azetidin-1-yl)-pyridine-2-carboxylic acid (1,1-dimethyl-2-methylcarbamoyl-ethyl)-amide], the negative logarithm of the EC50 (pEC50) on human CB2 receptors was 6.76; at human CB1 receptors it was less than 5.00.

`CN(C)C(=O)CC1(NC(=O)c2ccc(N3CC(F)(F)C3)c(OCC3CC3)n2)COC1` [Example 41, 6-Cyclopropylmethoxy-5-(3,3-difluoro-azetidin-1-yl)-pyridine-2-carboxylic acid (3-dimethylcarbamoylmethyl-oxetan-3-yl)-amide]: the pEC50 was 6.53 at human CB2 receptors and less than 5.00 at human CB1 receptors.

Consider `NC(=O)CC1(NC(=O)c2ccc(C3CC3)c(OCC3CCCO3)n2)CS(=O)(=O)C1` (stereo not shown) [Example 80, N-[3-(2-Amino-2-oxoethyl)-1,1-dioxothietan-3-yl]-5-cyclopropyl-6-(oxolan-2-ylmethoxy)pyridine-2-carboxamide], for which the pEC50 was 8.62 on human CB2 receptors and less than 5.00 at human CB1 receptors.

As to `CC(C)CC(CNC(=O)c1ccc(N2CC(F)(F)C2)c(OCC2CC2)n1)C(=O)O` (stereo not shown) [Example 11, 2-[({[6-(Cyclopropylmethoxy)-5-(3,3-difluoroazetidin-1-yl)pyridin-2-yl]carbonyl}amino)methyl]-4-methylpentanoic acid], the results for the negative-log EC50 (pEC50) on human CB2 receptors and on human CB1 receptors were 6.01 and less than 5.00, respectively.

On to `NC(=O)CC1(NC(=O)c2ccc(C3(O)COC3)c(OCC3CC3)n2)COC1` [Example 94, N-[3-(2-Amino-2-oxoethyl)oxetan-3-yl]-6-(cyclopropylmethoxy)-5-(3-hydroxyoxetan-3-yl)pyridine-2-carboxamide], for which the negative-log EC50 (pEC50) on human CB2 receptors is 6.60; at human CB1 receptors it was less than 5.00.

Turning to `CC(C)(CC(N)=O)NC(=O)c1ccc(N2CC(F)(F)C2)c(OCC2CC2)n1` [Example 48, 6-Cyclopropylmethoxy-5-(3,3-difluoro-azetidin-1-yl)-pyridine-2-carboxylic acid (2-carbamoyl-1,1-dimethyl-ethyl)-amide], the pEC50 was 8.04 at human CB2 receptors and less than 5.00 at human CB1 receptors.

On to `NC(=O)[C@@H]1CCCC[C@@H]1NC(=O)c1ccc(N2CC(F)(F)C2)c(OCC2CC2)n1` (stereo in doubt) [Example 20, (+)-cis-6-Cyclopropylmethoxy-5-(3,3-difluoro-azetidin-1-yl)-pyridine-2-carboxylic acid (2-carbamoyl-cyclohexyl)-amide], for which the pEC50 is 7.80 at human CB2 receptors and less than 5.00 on human CB1 receptors.

On to `CN(C)C(=O)CC1(NC(=O)c2ccc(C(F)(F)F)c(OCC3CC3)n2)COC1` [Example 42, 6-Cyclopropylmethoxy-5-trifluoromethyl-pyridine-2-carboxylic acid (3-dimethylcarbamoylmethyl-oxetan-3-yl)-amide], for which the pEC50 on human CB2 receptors was 6.01; at human CB1 receptors, less than 5.00.

On to `CC(C)CS(=O)(=O)c1nc(C(=O)NC2(CC(N)=O)COC2)ccc1C1CC1` [Example 36, 5-Cyclopropyl-6-(2-methyl-propane-1-sulfonyl)-pyridine-2-carboxylic acid (3-carbamoylmethyl-oxetan-3-yl)-amide], for which the negative-log EC50 (pEC50) at human CB2 receptors is 6.59; at human CB1 receptors, less than 5.00.

For the compound `NC(=O)CC1(NC(=O)c2ccc(C3CC3)c(OCC3CC3)n2)CCOC1` (stereo not shown) [Example 88, N-[3-(2-Amino-2-oxoethyl)oxolan-3-yl]-5-cyclopropyl-6-(cyclopropylmethoxy)pyridine-2-carboxamide], the results for the pEC50 on human CB2 receptors and at human CB1 receptors were 8.70 and less than 5.00, respectively.

For the compound `CNC(=O)CC1(NC(=O)c2ccc(C3CC3)c(OCC3CC3)n2)COC1` [Example 38, 5-Cyclopropyl-6-cyclopropylmethoxy-pyridine-2-carboxylic acid (3-methylcarbamoylmethyl-oxetan-3-yl)-amide], the pEC50 is 7.00 on human CB2 receptors and less than 5.00 at human CB1 receptors.

With `CC(C)[S+]([O-])c1nc(C(=O)NC2(CC(N)=O)COC2)ccc1Br` (stereo not shown) [Example 44, 5-Bromo-6-(propane-2-sulfinyl)-pyridine-2-carboxylic acid (3-carbamoylmethyl-oxetan-3-yl)-amide], the pEC50 at human CB2 receptors is 6.38; on human CB1 receptors it was less than 5.00.

In general, pEC50 refers to −log10 of the EC50, conventionally taken in molar units.
